This is an account of results in a melting point compilation (Tetko et al.; mined from patent text by program, amines drawn as free bases though some values may be those of a salt).

A value given as a limit tells only on which side of the number the result lay.

By melting point is commonly meant the temperature of the solid-liquid transition. With `CCN(C(=O)N(CC)c1ccc2c(c1)C(C)(C)CCC2(C)C)c1ccc(C(=O)O)cc1`, the melting point was 169 to 172 °C. For `CCCCCNC(=O)C(C)Cc1ccc2c(c1)c(Cc1ccc(C(=O)OC)cc1OC)cn2C` (centres undefined), the melting point fell in the range of 128 to 130 °C. `COc1ccc(C(=O)N2CCc3cc(S(=O)(=O)N4CC(c5ccccc5)NC4=O)ccc32)cc1` (centres undefined) showed a melting point of 220 to 222 °C. `CCCCCCCCCCCCCCOc1ccccc1C(=O)OC` came in with a melting point of 39 to 40 °C.

Molecule `NC(=O)c1nc(-c2cccc(O)c2)nc2c1[nH]c(=O)n2-c1ccccc1Cl` yielded a melting point of 360 to 364 °C. The figure for `CC(O)(C#Cc1ccccc1)C(=O)O` (centres undefined) is 104 to 106 °C.

`CCN1C(=O)C(C(=O)Nc2cccc(C(=O)Nc3ccccc3)c2)c2cc(C(C)=O)ccc21` (centres undefined) had a melting point of 173 to 175 °C.

Molecule `Oc1ccc(-c2c3ccccc3c(Cl)c3sc4ccccc4c23)cc1` came in with a melting point of 193 to 195 °C. `Cc1cccc(C(C#N)N2CCOCC2)c1` (centres undefined) registered a melting point of 59 to 60 °C. For `O=C(c1ccc(-c2cc3cnc(Nc4cccc(Cl)c4)nc3[nH]2)cc1)N1CCOCC1`, the melting point was more than 250 °C. The figure for `Cc1ccc(Cn2c(=O)cc(C(C)C(=O)O)c3cc(C)ccc32)cc1` (centres undefined) is 188 to 190 °C. `O=Cc1c(Cl)ccc(F)c1Cl` had a melting point of 63 to 65 °C. The molecule `O=C(CCSCCC(=O)Nc1ccc(Nc2ccccc2)cc1)Nc1ccc(Nc2ccccc2)cc1` gave a melting point of 199 to 203 °C. Take `COc1cc(OC)c2c(=O)[nH]c(-c3cccc(N4CCN(CCO)CC4)n3)nc2c1`: the melting point lay in the range of 175 to 177 °C. The molecule `CCn1cc(CN(C(=O)C2CCCc3c(O)cccc32)c2ccc(C(C)C)nc2)cn1` (centres undefined) returned a melting point of 173 °C. The same measure for `CCOC(=O)C(=CNc1ccnc(-c2ccccn2)n1)C(=O)OCC`: 162 to 164 °C; for `CCCCCCCCCCCCCCCCCCc1c(C)[nH]c(C(=O)OCC)c1C`: 76 to 78 °C; for `COc1cc(-c2ccc(O)c(C3(C)CCCCC3)c2)cc(CC2SC(N(C)C)=NC2=O)c1OC` (centres undefined): 187 to 188 °C. `CCN1c2cc(N)ccc2N(C)C(=O)c2cccnc21` gave a melting point of 193 to 195 °C. The same measure for `C/C(=N\OCCN1CCOCC1)[C@H]1CC[C@H]2[C@@H]3CC=C4C[C@@H](O)CC[C@]4(C)[C@H]3CC[C@]12C`: 137 to 138 °C; for `O=C(NCC1Cc2cc(Cl)c3ccccc3c2O1)OCc1ccccc1` (centres undefined): 117 to 119 °C; for `CCOC(=O)C(O)c1cc(F)cc2cccnc12` (centres undefined): 84 to 87 °C. Regarding `Clc1ccc2ncc(Br)n2n1`, the melting point lay within 132 to 137 °C. As for `CC(=O)Nc1cccc(C(=O)c2[nH]c3cc(Cl)ccc3c2NC(C)=O)c1`, the melting point was in the range of 225 to 228 °C. Molecule `CN1C(=O)C(c2ccncc2)(c2ccc(OC(F)F)cc2)N=C1N` (centres undefined) returned a melting point of 193 to 195 °C. The figure for `CCOC(=O)CNCc1cc(I)ccc1N` is 58 to 61 °C; for `Oc1cc(Br)nnc1-c1ccc(Cl)cc1` it is 262 to 264 °C; for `CCOC(=O)CN1C(=O)C(NC(=O)c2ccc3ccccc3c2)C(c2ccc(OC)cc2)Sc2ccccc21` (centres undefined) it is 183 to 186 °C. With `O=C(O)COc1cc(O)c2c(c1)NC1(CCCCC1)CC2=O`, the melting point lay within 177 to 178 °C. The same measure for `CCCN1N=C2C(=Cc3ccccc3C)CSCC2C1c1ccccc1C` (centres undefined): 110 to 112 °C. `COC(=O)C#CC(=O)c1cccc(OC)c1` had a melting point of 32 to 34 °C. Turning to `Cc1nnc2n1-c1sc(CCc3ccccc3)cc1C(c1ccccc1Cl)=NC2`, the melting point was 106 to 108 °C. Turning to `CCOC(=O)NC(=N)NC#N`, the melting point fell in the range of 193 to 194 °C. The figure for `CN1CCN(Cc2nnc(S)n2Cc2cccc(F)c2)CC1` is 180 °C; for `CCN(CC)CCC1CCCCN1C(=O)N1c2ccccc2C(=O)Nc2cccnc21` (centres undefined) it is 100 °C. As for `O=C(Cc1ccccc1[N+](=O)[O-])c1ccccc1F`, the melting point lay in the range of 84 to 86 °C. Regarding `COC(=O)COc1ccc(N)cc1`, the melting point is 65 to 66.8 °C. `O=C(Nc1ccc(-n2nc(C3CC3)cc2C2CC2)nc1)c1ccncc1F` registered a melting point of 192 to 195 °C. Consider `CCOC(=O)c1cn(C2CC2)c2c(C#N)c(N3C[C@@H]4CCCN[C@@H]4C3)c(F)cc2c1=O`, for which the melting point is 209 to 210 °C. `Cc1cc(-c2nc3sc4ccccc4n3c2CC(=O)O)c(C)s1` showed a melting point of 249 to 250 °C. The same measure for `CC(=O)c1ccc(-n2c(C)ccc2-c2ccc(S(C)(=O)=O)cc2)cc1`: 179 to 180 °C; for `CCN(CC1OCCO1)c1c([N+](=O)[O-])cc(S(C)(=O)=O)cc1[N+](=O)[O-]`: 125 to 127 °C; for `N#Cc1c(C(F)(F)F)nn(-c2c(Cl)cc(C(F)(F)F)cc2Cl)c1C(F)(F)F`: 88 to 92 °C. The figure for `CCOC(=O)c1c(Sc2ccccc2)n(C2CC2)c2c(F)c(F)c(F)cc2c1=O` is 135 to 137 °C; for `CCOC(=O)C1=C(c2ccccc2)Nc2n[nH]cc2C1c1ccccc1OC` (centres undefined) it is 195 °C; for `COc1cc(Nc2c(C#N)cnc3cc(-c4ccc(C=O)o4)ccc23)c(Cl)cc1Cl` it is more than 250 °C. In turn, `CC(C)(O)Cn1c(COc2ccccc2)nc2c(N)nc3ccccc3c21` had a melting point of 200 to 201 °C. As to `CCOC(=O)c1cc(=O)c2cccc(NC(=O)c3ccc4c(c3)CC(CSCc3ccccc3)O4)c2o1` (centres undefined), the melting point was in the range of 175 to 177 °C. Molecule `Nc1c(C(=O)c2cc(Cl)ccc2[N+](=O)[O-])[nH]c2cc(Cl)ccc12` had a melting point of 233 to 234 °C. The molecule `CCn1nc(C#N)c(Nc2ccc(Cl)cc2[N+](=O)[O-])n1` came in with a melting point of 130 to 132 °C. As for `CCCCCCC(=O)Oc1cc(-c2nc3ccccc3[nH]c2=O)cc([N+](=O)[O-])c1OC(=O)CCCCCC`, the melting point lay within 186 to 188 °C. In turn, `N#CCOc1cccnc1N` registered a melting point of 100 to 101 °C. With `CNc1nc(-c2cc(C)c(O)c(C)c2)cc2ccc(CN3CCN(C)CC3)cc12`, the melting point lay within 264 to 266 °C. Molecule `Fc1cccc(CSc2nnc(-c3ncnc4[nH]ccc34)o2)c1` displayed a melting point of 182 to 183 °C. `OCCCOc1ccc(-n2ccnc2)cc1`: the melting point lay within 76 to 78 °C. The molecule `O=C(O)c1ccc(NCc2cncc3ccccc23)cc1` displayed a melting point of 237 to 240 °C. The molecule `Cc1ccc(C(=O)Nc2c[nH]nc2C(=O)NCCC(F)(F)F)cn1` had a melting point of 196 to 197 °C. `Cc1c(-c2ccc(O)cc2)sc(C=O)c1-c1ccc(O)c(Cl)c1` came in with a melting point of 234 to 236 °C.

In turn, `Cc1nccc(N)c1N` gave a melting point of 170 to 171 °C. The figure for `CCCCCS(=O)(=O)NC(=O)/C=C/c1ccc(C)n1Cc1ccc(Cl)cc1Cl` is 189 to 190 °C; for `COC(=O)C=NOCC(=O)C=CN(C)C` it is 63 to 64 °C. Molecule `CN(C)CCOCC(O)c1ccc2cc(OCc3ccccc3)ccc2c1` (centres undefined) gave a melting point of 100 °C. In turn, `CCCCCCCCCCCCCCCCCCNC(=O)OCC(CN)OC(=O)NC` (centres undefined) displayed a melting point of 49 to 50.5 °C. The figure for `CCCCCN1C(=O)C2(COc3cc4c(cc32)OCO4)c2c(C#N)cccc21` (centres undefined) is 128 to 129 °C.
